Patent US20190060340A1, “NOVEL AMINOGLYCOSIDES AND USES THEREOF IN THE TREATMENT OF GENETIC DISORDERS” (Technion Research & Development Foundation Limited, priority 2007, published 2019)
≈ marks a conversion by molar mass, not a printed value. Like-named read-outs stand apart in the source and are kept apart here.

How the values were obtained:
[1] = system: R3X nonsense mutation (a premature UGA C stop codon) of the PCDH15 gene; assay: In vitro suppression and translation, pDB650-R3X reporter plasmid in rabbit reticulocyte lysate coupled transcription/translation system; format: biochemical, human; conditions: for Conc. (concentration at which maximal suppression level was observed) / Supp. level (%), maximal in-vitro mutation suppression: R3X mutation; for Conc. (concentration at which maximal suppression level was observed): in vitro; for Supp. level (%), maximal in-vitro mutation suppression: 35-kDa product out of total protein; for Supp. level (%), maximal in-vitro mutation suppression / Trans. level (%): at Conc. of maximal suppression; for Trans. level (%): total protein relative to no compound
Description: Initially, Compounds 1-9 were tested for their ability to suppress this nonsense mutation in vitro, using a reporter construct carrying the R3X nonsense mutation (a premature UGA C stop codon) of the PCDH15 gene. Mutations in the PCDH15 gene which encodes protocardherin 15, cause type 1 Usher syndrome (USH1), which is characterized by profound prelingual hearing loss, vestibular areflexia, and prepubertal onset of retinitis pigmentosa (RP). Four different PCDH15 USH1-causing nonsense mutations, R3X, R245X, R643X, and R929X, have been reported in humans.
Suppression of nonsense mutations by Compounds 1-9 was tested in vitro using a reporter plasmid harboring the R3X mutation of the PCDH15 gene. To create this plasmid, the oligonucleotides 5′-[…]-3′ (SEQ ID NO: 1) and 5′-[…]-3′ (SEQ ID NO: 2) were annealed to each other and inserted into the BamHI and HindIII sites of plasmid pDB650 [6].
The resulting reporter plasmid pDB650-R3X contained a TGA C nonsense mutation between a 25-kDa polypeptide encoding open reading frame (ORF) and a 10-kDa polypeptide encoding ORF.
The plasmid was transcribed and translated in a rabbit reticulocyte lysate coupled transcription/translation system (Promega) in the presence of [^35S]-methionine, and the reaction products were separated by SDS-PAGE and quantified using Phosphorlmager analysis. The mutation suppression level was calculated as the relative proportion of the 35-kDa product out of total protein (the sum of 35-kDa and 25-kDa), and the translation level was calculated as the relative proportion of the total protein at each tested compound concentration out of the total protein without the presence of the tested compounds.
The tested concentrations of paromomycin were 0, 5, 10, 20, 30 and 40 μg/ml, tested concentrations of gentamicin were 0, 5, 10, 20, and 30 μg/ml, and the tested concentrations of Compounds 1-9 were in the range of 0-160 μg/ml.
Compound 37 was tested for its ability to suppress a nonsense mutation in-vitro, using a reporter construct carrying either R3X nonsense mutation (a premature UGA C stop codon) or R245X nonsense mutation (a premature UGA A stop codon) of the PCDH15 gene, using gentamicin, paromomycin and Compound 3 as standards and following the experimental procedures presented hereinabove.
For the rat-PGM-β-Gal in vitro readthrough system, the pDB series of reporter plasmids harbor the following elements under SP6 promoter control: an open reading frame (ORF) derived from the 5′ end of the rat PGM gene, which encodes a 25-kDa polypeptide; another small ORF, encoding the 10-kDa alpha complementation region of β-galactosidase, and terminated by tandem, in-frame stop codons (UAA UAG); located between the two ORFs is a DNA fragment derived from PCDH15 cDNA, including the tested stop mutation or the corresponding wild-type codon, and six upstream and downstream flanking codons (except for p.R3X constructs, in which there are only two upstream PCDH15-flanking codons). The fragments were created by annealing the following couples of complementary oligonucleotides:
The fragments were inserted into the BamHI and HindIII restriction sites of the pDB read-through construct. Reporter plasmids harboring each of the four nonsense mutations and the corresponding wt alleles were in vitro transcribed and translated using the TNT SP6 Coupled Reticulocyte lysate System (Promega) in the presence of [^35S]-methionine and increasing concentrations of aminoglycosides as described previously. […] The degree of suppression was calculated as the relative proportion of the 35-kDa product out of total reaction products (35-kDa and 25-kDa polypeptides). The results are averages of at least three independent experiments.

[2] = system: original p2Luc plasmid containing a TGA C nonsense mutation; assay: Dual luciferase in vitro transcription/translation assay; format: biochemical
Source text: (§1) DNA fragments derived from the subsequent genes, including the tested stop mutation or the corresponding wild-type codon, and four upstream and downstream flanking codons (except for p.R3X constructs, in which there are only two upstream PCDH15-flanking codons) were cloned into p2Luc plasmid between renilla and firefly luciferase genes as described previously. The formed plasmids, as well as the original p2Luc plasmid containing a TGA C nonsense mutation, were transcribed and translated in vitro and the stop codon suppression efficiency was calculated as described previously.
(§2) For the dual luciferase in vitro transcription/translation assay, DNA fragments derived from PCDH15, CFTR, Dystrophin and IDUA cDNAs, including the tested stop mutation or the corresponding wild-type codon, and four upstream and downstream flanking codons (except for p.R3X constructs, in which there are only two upstream PCDH15-flanking codons) were created by annealing the couples of complementary oligonucleotides presented above.
(§3) Fragments were inserted into the SalI and SacI restriction sites of the p2Luc plasmid between renilla and firefly luciferase genes. The afforded plasmids, as well as the original p2Luc plasmid containing a TGA C nonsense mutation, were transcribed and translated using the TNT Reticulocyte Lysate Quick Coupled Transcription/Translation System (Promega™). Each transcription/translation reaction (10 μl, total volume) contained 8 μl TNT T7 Quick Master Mix, 0.2 μl methionine (1 mM), 0.8 μl DNA template (2 μg/μl), 1 μl of either water (blank) or 1 μl solution of increasing concentrations of the tested aminoglycosides in water. Luciferase activity was determined following 90 minutes incubation at 30° C. using the Dual Luciferase Reporter Assay System (Promega™). The total luminescence produced by each one of the proteins was measured separately using the FLx800 multidetection plate reader (Bio-Tek) and the stop codon suppression efficiency was calculated as described previously. The results are averages of at least three independent experiments.

[3] = system: R3X (PCDH15, Usher Syndrome); assay: as above; format: biochemical, human
Source text: as §1, §2, §3

[4] = system: Escherichia coli ATCC 25922; assay: Antibacterial activity, MIC by double-microdilution method; format: cell-based; conditions: for MIC: Escherichia coli
Description: (§4) In order to compare the observed aminoglycoside-induced stop codon read-through activity in mammalian cells to antibacterial activity thereof, Compounds 1-9 were further investigated as antibacterial agents against both Gram-negative (E. coli) and Gram-positive (Bacillus subtilis) bacteria, and the minimal inhibitory concentration (MIC) values were determined by using a microdilution assay with paromomycin and gentamicin as controls, and the results are presented in Table 18 hereinabove.
(§5) The bacterial strains used were Escherichia coli ATCC 25922, and Bacillus Subtilis ATCC 6633. […] All the experiments were performed in triplicates and analogous results were obtained in two to four different experiments.

[5] = system: Bacillus Subtilis ATCC 6633; assay: as above; format: cell-based; conditions: Bacillus subtilis
Description: as §4, §5

[6] = system: human fibroblast cells; conditions: cited from earlier work
[7] = available toxicity data on aminoglycosides; unit inferred; cited from earlier work
[8] = system: stop mutations; conditions: literature; cited from earlier work
[9] = ATCC25922, ATCC 25922, read-out: MIC E. coli
[10] = ATCC6633, ATCC 6633, read-out: MIC B. Subtilis

| Compound | Conc. (concentration at which maximal suppression level was observed) [1] | Supp. level (%), maximal in-vitro mutation suppression [1] | Trans. level (%) [1] | MIC [4, 9] | MIC [5, 10] | LD50 [7] | further results |
| --- | --- | --- | --- | --- | --- | --- | --- |
| NC1CC(N)[C@@H](O[C@H]2OC(CO)[C@@H](O)C(O)C2N)C(O)C1O (stereo partly shown) [Compound 1, Paromamine] | 80 µg/mL | 6.2% | 74 ± 15% | – | – | – | Supp. level (%), maximal in-vitro mutation suppression ([1]; listed as Paromamine): 6.2 ± 0.2%; Conc. (μM) at which maximum suppression level was achieved ([2]; dual luciferase in vitro system, all constructs of Table 21): 490 µM; Maximum in vitro suppression (%) UGAC ([2]; p2luc): 1.1 ± 0.1%; Maximum in vitro suppression (%) R3X [3]: 0.6 ± 0.1%; MIC ([4]; ATCC25922, read-out: MIC E. coli): 512 µg/mL (≈ 1580 µM); MIC ([5]; ATCC6633, read-out: MIC B. Subtilis): 128 µg/mL (≈ 396 µM) |
| NC1C[C@@H](N)[C@@H](O)[C@@H](O[C@@H]2O[C@H](CO)[C@H](O)C2O)[C@@H]1O[C@H]1OC(CO)[C@@H](O)[C@H](O)[C@@H]1N (stereo partly drawn) [Compound 2, (3S,4R,5S,6S)-5-amino-6-((1R,2R,3R,4R)-4,6-diamino-2-((2S,4R,5R)-3,4-dihydroxy-5-(hydroxymethyl)-tetrahydrofuran-2-yloxy)-3-hydroxycyclohexyloxy)-2-(hydroxymethyl)-tetrahydro-2H-pyran-3,4-diol] | 80 µg/mL | 1.3 ± 0.1% | 100 ± 10% | 256 µg/mL (≈ 562 µM) | 64 µg/mL (≈ 141 µM) | – | – |
| NC1C[C@@H](N)[C@@H](O[C@@H]2O[C@H](CO)[C@H](O)C2O)[C@@H](O)[C@@H]1O[C@H]1OC(CO)[C@@H](O)[C@H](O)[C@@H]1N (stereo partly drawn) [Compound 4, (3S,4R,5S,6S)-5-amino-6-((1R,2S,3R,4R)-4,6-diamino-3-((2R,4R,5R)-3,4-dihydroxy-5-(hydroxymethyl)-tetrahydrofuran-2-yloxy)-2-hydroxycyclohexyloxy)-2-(hydroxymethyl)-tetrahydro-2H-pyran-3,4-diol] | 80 µg/mL | 1.5 ± 0.1% | 74 ± 7% | 256 µg/mL (≈ 562 µM) | 96 µg/mL (≈ 211 µM) | – | – |
| NC[C@H]1O[C@@H](OC2C(O)[C@H](O[C@H]3OC(CO)[C@@H](O)C(O)C3N)C(N)C[C@H]2N)C(O)C1O (stereo partly shown) [Compound 5] | 80 µg/mL | 4.4 ± 2% | 75 ± 9% | > 512 µg/mL | 192 µg/mL (≈ 422 µM) | – | – |
| NC[C@H]1O[C@@H](OC2C(N)[C@@H](O[C@@H]3C(N)C[C@@H](N)C(O)C3O)OC(CO)[C@H]2O)C(O)C1O (stereo partly shown) [Compound 7] | 80 µg/mL | 2.9 ± 2% | 98 ± 10% | 192 µg/mL (≈ 422 µM) | 48 µg/mL (≈ 106 µM) | – | – |
| NC1C(N)[C@H](O)C(CO)O[C@@H]1O[C@@H]1C(N)C[C@@H](N)C(O)C1O (stereo partly shown) [Compound 8] | 80 µg/mL | 2.0 ± 2% | 71 ± 7% | 192 µg/mL (≈ 596 µM) | 48 µg/mL (≈ 149 µM) | – | fold lower antimicrobial activity as compared to paromomycin ([4]; from Table 18, E. coli and B. subtilis): 6-16 fold |
| NC1C(OCOC2C(N)[C@H](O[C@H]3C(N)C[C@H](N)C(O)C3O)OC(CO)[C@@H]2O)[C@H](O)C(CO)O[C@@H]1O[C@@H]1C(N)C[C@@H](N)C(O)C1O (stereo partly shown) [Compound 9] | 80 µg/mL | <1% | 22 ± 2% | 96 µg/mL (≈ 146 µM) | 48 µg/mL (≈ 72.9 µM) | – | – |
| CN[C@@H]1[C@@H](O)[C@@H](O[C@@H]2[C@@H](O)[C@H](O[C@H]3O[C@H]([C@@H](C)O)[C@@H](O)[C@H](O)[C@H]3N)[C@@H](N)C[C@H]2N)OC[C@]1(C)O [Compound G-418, G-418] | – | – | – | – | – | – | LD50 against human fibroblast cells ([6]; ref [49]): 0.04 mg/mL |
| NCCC(O)C(=O)NC1CC(N)C(OC2OC(CN)C(O)C(O)C2N)C(O)C1O (stereo not shown) [N1-AHB-neamine] | – | – | – | – | – | 260 mg/kg | – |
| NCC[C@H](O)C(=O)N[C@@H]1C[C@H](N)[C@@H](O[C@H]2O[C@H](CN)[C@@H](O)[C@H](O)[C@H]2O)[C@H](O)[C@H]1O[C@H]1O[C@H](CO)[C@@H](O)[C@H](N)[C@H]1O [amikacin] | – | – | – | – | – | 300 mg/kg | – |
| NC[C@@H]1O[C@@H](O[C@H]2[C@H](O)[C@@H](O[C@H]3O[C@H](CO)[C@@H](O)[C@H](N)[C@H]3O)[C@H](N)C[C@@H]2N)[C@@H](O)[C@H](O)[C@H]1O [kanamycin A] | – | – | – | – | – | 280 mg/kg | stop mutations suppression / read-through activity [8]: does not show any read-through activity |
| NC[C@H]1O[C@H](O[C@H]2[C@H](O)[C@@H](O[C@H]3O[C@H](CO)[C@@H](O)[C@H](N)[C@H]3O)[C@H](N)C[C@@H]2N)[C@H](N)[C@@H](O)[C@@H]1O [kanamycin B] | – | – | – | – | – | 132 mg/kg | – |
| N[C@@H]1[C@@H](O)[C@@H](O[C@@H]2[C@@H](O)[C@H](O[C@H]3O[C@H](CO)[C@@H](O)[C@H](O)[C@H]3N)[C@@H](N)C[C@H]2N)O[C@H](CO)[C@H]1O [kanamycin C] | – | – | – | – | – | 225 mg/kg | – |
| NC[C@H]1O[C@H](O[C@H]2[C@H](O)[C@@H](O[C@H]3O[C@H](CO)[C@@H](O)[C@H](N)[C@H]3O)[C@H](N)C[C@@H]2N)[C@H](O)[C@@H](O)[C@@H]1O [kanamycin] | – | – | – | – | – | – | LD50 against human fibroblast cells [6]: 2.5 to 5.0 mg/mL |
| NC[C@H]1O[C@H](O[C@H]2[C@H](O)[C@@H](O)[C@H](N)C[C@@H]2N)[C@H](N)[C@@H](O)[C@@H]1O [neamine] | – | – | – | – | – | 125 mg/kg | – |
